This note sets out measurements from US11261201B2 (priority 2018, dated 2022).

SMILES strings stand for the structures. Converted amounts (≈) assume the structure as drawn. Counter-ions that a name gives are not always drawn. Like-named read-outs stand apart in the source and are kept apart here.

One assay deals with H37RvMA. Nature of the assay: Tuberculosis Alamar Blue/Resazurin assay (MIC). The settings on record: Mycobacterium tuberculosis, H37RV, read-out: WT H37Rv MTB Activity. It is filed as cell-based. (Resazurin is reduced to fluorescent resorufin, in cell work by metabolically active cells.)
For a further assay, the system named is A. baumannii. Nature of the assay: Gram negative MIC protocol (OD600, LB, 24 h). As to conditions: Acinetobacter baumannii.
The test system of a further assay is E. coli. Nature of the assay: Gram negative MIC protocol (OD600, LB, 24 h). As to conditions: Escherichia coli.
Setting [1] is: read-out: MIC A. baumannii LB Media, A. baumannii, LB media, 24 h, OD600.
Where [2] appears, read: read-out: MIC E. coli delta-TolC LB Media, E. coli delta-TolC, LB media, OD600.
Setting [3] is: read-out: MIC WT E. coli LB Media, WT E. coli, LB media, OD600.
Setting [4] is: read-out: MIC A. baumannii LB Media.
[5] abbreviates: read-out: MIC E. coli delta-TolC LB Media, E. coli delta-TolC strain, LB media, 24 h, OD600.
Setting [6] is: read-out: MIC WT E. coli LB Media, wild-type E. coli, LB media, 24 h, OD600.

Description for A. baumannii: (§1) Overnight bacterial cultures were grown in LB with no added antibiotics at 37° C. with shaking. A 1:1000 dilution of these cultures into LB was exposed to concentration gradients of compounds in 96-well plates (100 μL per well assay volume). Resulting plates were incubated at 37° C. for 24 h without shaking, and OD600 was measured at the end of the incubation. MICs were determined as the lowest concentrations at which OD600 remained at baseline.
Description for E. coli: as §1

Regarding `CC(CC1CCCCC1)NCc1ccccc1CS(=O)(=O)N(C)C` (centres unmarked) [B437, 1-(2-(((1-cyclohexylpropan-2-yl)amino)methyl)phenyl)-N,N-dimethylmethane sulfonamide], the MIC is above 150 µM in the assay on H37RvMA (WT H37Rv MTB), above 150 µM in the assay on A. baumannii (setting [1]), 4 µM (≈ 1.41 µg/mL) in the assay with E. coli (setting [2]) and 150 µM (≈ 52.9 µg/mL) in the assay with E. coli (setting [3]).
Take `Cc1ccccc1CNCCC1=CCCCC1` [B13, 2-(cyclohex-1-en-1-yl)-N-(2-methylbenzyl)ethan-1-amine]: the MIC with H37RvMA (WT H37Rv MTB) was above 150 µM; in the assay on A. baumannii (setting [1]) it was 150 µM (≈ 34.4 µg/mL); in the assay on E. coli (setting [2]) it was 55 µM (≈ 12.6 µg/mL); with E. coli (setting [3]), 90 µM (≈ 20.6 µg/mL).
Regarding `C[C@@H](CC1=CCCCC1)NCc1ccccc1` [B171], the MIC in the assay on H37RvMA was above 150 µM; with A. baumannii (setting [4]) it was 110 µM (≈ 25.2 µg/mL); in the assay with E. coli (setting [2]), 19 µM (≈ 4.36 µg/mL); with E. coli (setting [3]) it was 41 µM (≈ 9.4 µg/mL).
For `CC(=O)Oc1ccccc1CNCCC1CCCCC1` [B256, 2-((2-cyclohexylethylamino)methyl)phenyl acetate], the MIC was above 150 µM in the assay on H37RvMA (WT H37Rv MTB), above 150 µM with A. baumannii (setting [1]), 150 µM with E. coli (setting [5]) and above 150 µM with E. coli (setting [6]).
Regarding `c1ccc(Oc2ccccc2CNCCC2CCCCC2)cc1` [B232, 2-cyclohexyl-N-(2-phenoxybenzyl)ethanamine hydrochloride], the MIC worked out at 91 µM with H37RvMA (WT H37Rv MTB), 96 µM in the assay on A. baumannii (setting [1]), 17 µM with E. coli (setting [5]) and 170 µM in the assay on E. coli (setting [6]).
For `CCC1CCCCC1Oc1ccccc1CNC(C)CC1CCCCC1` (centres unmarked) [B392, 1-cyclohexyl-N-(2-((2-ethylcyclohexyl)oxy)benzyl)propan-2-amine], in that order: 33.4 µM (≈ 11.9 µg/mL), 150 µM (≈ 53.6 µg/mL), 7 µM (≈ 2.5 µg/mL) and above 150 µM.
For the compound `C[C@H](NCc1ccccc1)C12CC3CC(CC(C3)C1)C2` [B197], the MIC in the assay with H37RvMA (WT H37Rv MTB) is above 150 µM; in the assay with A. baumannii (setting [1]) it was 300 µM (≈ 80.8 µg/mL); with E. coli (setting [2]), 96 µM (≈ 25.9 µg/mL); in the assay on E. coli (setting [3]), 170 µM (≈ 45.8 µg/mL).
Taken in the same sequence, the figures for `CC(CC1CCCCC1)NCc1ccccc1OCc1ccccc1C1CC1` (centres unmarked) [B462, 1-cyclohexyl-N-(2-((2-cyclopropylbenzyl)oxy)benzyl)propan-2-amine] were 10 µM (≈ 3.78 µg/mL), 33 µM (≈ 12.5 µg/mL), 4 µM (≈ 1.51 µg/mL) and above 150 µM.
For `c1ccc(CNC2(C3CC3)CC2)cc1` [B32], in that order: above 150 µM, above 150 µM, above 150 µM and above 150 µM.
Taken in the same sequence, the figures for `c1ccc(CNCCN2CCc3ccccc3C2)cc1` [B129] were above 150 µM, above 150 µM, above 150 µM and above 150 µM.
Take `CC(CC1CCCCC1)NCc1ccccc1CCC(=O)O` (centres unmarked) [B401, 3-(2-((1-cyclohexylpropan-2-ylamino)methyl)phenyl)propanoic acid trifluoroacetate]: the MIC in the assay with H37RvMA is above 150 µM; in the assay with A. baumannii (setting [4]), above 150 µM; with E. coli (setting [2]), 33 µM; with E. coli (setting [3]), above 150 µM.
Consider `CC(CC1CCCCC1)NCc1ccccc1CS(C)(=O)=O` (centres unmarked) [B424, 1-cyclohexyl-N-(2-((methylsulfonyl)methyl)benzyl)propan-2-amine], for which the MIC in the assay on H37RvMA (WT H37Rv MTB) is above 150 µM; with A. baumannii (setting [1]), 150 µM (≈ 48.5 µg/mL); with E. coli (setting [2]), 3 µM (≈ 0.971 µg/mL); with E. coli (setting [3]) it was 33 µM (≈ 10.7 µg/mL).
Taken in the same sequence, the figures for `CC1=C(C)CC(CC(C)NCc2ccccc2)CC1` (centres unmarked) [B162, N-benzyl-1-(3,4-dimethylcyclohex-3-en-1-yl)propan-2-amine] were above 150 µM, above 150 µM, 300 µM (≈ 77.2 µg/mL) and above 500 µM.
In the case of `CC(CC1CCCCC1)NCc1ccccc1OCCO` (centres unmarked) [B337], the MIC with H37RvMA (WT H37Rv MTB) was above 150 µM; with A. baumannii (setting [1]), 150 µM (≈ 43.7 µg/mL); with E. coli (setting [5]), 4 µM (≈ 1.17 µg/mL); in the assay with E. coli (setting [6]), 55 µM (≈ 16 µg/mL).
Taken in the same sequence, the figures for `CC(CC1CCCCC1)NCc1ccccc1OC(F)(F)F` (centres unmarked) [B321] were above 150 µM, above 150 µM, 55 µM (≈ 17.3 µg/mL) and above 150 µM.
As for `c1ccc(CNCCN2CCc3sccc3C2)cc1` [B140], the MIC in the assay with H37RvMA (WT H37Rv MTB), in the assay with A. baumannii (setting [1]), in the assay on E. coli (setting [2]) and with E. coli (setting [3]) was above 150 µM in each case.
`CC(CC1CCCCC1)NCc1ccccc1OCc1ccc(F)cc1` (centres unmarked) [B408, 1-cyclohexyl-N-(2-((4-fluorobenzyl)oxy)benzyl)propan-2-amine]: the MIC in the assay on H37RvMA (WT H37Rv MTB) turned out to be 12.2 µM (≈ 4.34 µg/mL); with A. baumannii (setting [1]), 55 µM (≈ 19.6 µg/mL); in the assay with E. coli (setting [2]), 2 µM (≈ 0.711 µg/mL); in the assay with E. coli (setting [3]), 55 µM (≈ 19.6 µg/mL).
As to `CC(CC1CCOC1)NCc1ccccc1` (centres unmarked) [B31], the MIC with H37RvMA (WT H37Rv MTB), with A. baumannii (setting [1]), in the assay with E. coli (setting [2]) and with E. coli (setting [3]) was above 150 µM in each case.
For `C=CCOc1ccccc1CNC(C)CC1CCCCC1` (centres unmarked) [B289], the MIC with H37RvMA (WT H37Rv MTB) was 150 µM (≈ 43.1 µg/mL); with A. baumannii (setting [1]), 150 µM (≈ 43.1 µg/mL); with E. coli (setting [5]) it was 3 µM (≈ 0.862 µg/mL); in the assay with E. coli (setting [6]), 91 µM (≈ 26.2 µg/mL).
Consider `CC(C)=CCCNCc1ccccc1` [B51], for which the MIC in the assay with H37RvMA (WT H37Rv MTB), with A. baumannii (setting [1]), in the assay on E. coli (setting [2]) and with E. coli (setting [3]) was above 150 µM in each case.
Take `COc1ccc(C(C)CNCc2ccccc2)cc1OC` (centres unmarked) [B44]: the MIC with H37RvMA, in the assay on A. baumannii (setting [1]), with E. coli (setting [2]) and with E. coli (setting [3]) was above 150 µM each time.
Take `CC(CC1CCCCC1)NCc1ccccc1CCC(N)=O` (centres unmarked) [B399, 3-(2-((1-cyclohexylpropan-2-ylamino)methyl)phenyl)propanamide trifluoroacetate]: the MIC in the assay on H37RvMA was above 150 µM; in the assay on A. baumannii (setting [4]) it was above 150 µM; with E. coli (setting [2]), 20 µM; in the assay on E. coli (setting [3]), 150 µM.
Consider `CC(NCc1ccccc1)C12C[C@H]3C[C@H](C1)C[C@@H](C2)C3` (some centres unmarked) [B80], for which the MIC was above 150 µM in the assay on H37RvMA (WT H37Rv MTB), above 150 µM in the assay on A. baumannii (setting [1]), 90 µM (≈ 24.2 µg/mL) in the assay on E. coli (setting [2]) and 250 µM (≈ 67.4 µg/mL) in the assay on E. coli (setting [3]).
Consider `CC(CC1CCCCC1)NCc1ccccc1CS(=O)(=O)NCC(O)CO` (centres unmarked) [B431, 1-(2-(((1-cyclohexylpropan-2-yl)amino)methyl)phenyl)-N-(2,3-dihydroxypropyl) methanesulfonamide], for which the MIC with H37RvMA (WT H37Rv MTB) is above 150 µM; with A. baumannii (setting [1]) it was above 150 µM; with E. coli (setting [2]) it was 4 µM (≈ 1.59 µg/mL); with E. coli (setting [3]), 150 µM (≈ 59.8 µg/mL).
Regarding `CCSCCOc1ccccc1CNC(C)CC1CCCCC1` (centres unmarked) [B314], the MIC came to 150 µM (≈ 50.3 µg/mL) with H37RvMA (WT H37Rv MTB), 91 µM (≈ 30.5 µg/mL) in the assay on A. baumannii (setting [1]), 4 µM (≈ 1.34 µg/mL) with E. coli (setting [5]) and 150 µM (≈ 50.3 µg/mL) with E. coli (setting [6]).
For the compound `CC(CC1CCCCC1)NCc1ccccc1OCc1ccccc1F` (centres unmarked) [B286], the MIC in the assay on H37RvMA (WT H37Rv MTB) came out at 33 µM (≈ 11.7 µg/mL); in the assay with A. baumannii (setting [1]) it was 91 µM (≈ 32.4 µg/mL); in the assay on E. coli (setting [5]) it was 3 µM (≈ 1.07 µg/mL); with E. coli (setting [6]) it was 91 µM (≈ 32.4 µg/mL).
Turning to `COC(=O)COc1ccccc1CNC(C)CC1CCCCC1` (centres unmarked) [B362], the MIC with H37RvMA (WT H37Rv MTB) was above 150 µM; in the assay with A. baumannii (setting [1]), 150 µM (≈ 47.9 µg/mL); with E. coli (setting [5]), 7 µM (≈ 2.24 µg/mL); in the assay with E. coli (setting [6]), 150 µM (≈ 47.9 µg/mL).
For `c1ccc(CNC2(Cc3ccccc3)CC2)cc1` [B49], the MIC in the assay with H37RvMA (WT H37Rv MTB), in the assay with A. baumannii (setting [1]), in the assay on E. coli (setting [2]) and with E. coli (setting [3]) was above 150 µM in each case.
Turning to `CC(C)NC(=O)COc1ccccc1CNC(C)CC1CCCCC1` (centres unmarked) [B358], the MIC in the assay with H37RvMA (WT H37Rv MTB) was above 150 µM; in the assay with A. baumannii (setting [1]), above 150 µM; in the assay with E. coli (setting [5]) it was 20 µM (≈ 6.93 µg/mL); with E. coli (setting [6]), above 150 µM.
